Data: patent publication US11932628B2, “Selective small molecule peptidomimetic melanocortin ligands” (REGENTS OF THE UNIVERSITY OF MINNESOTA, priority 2021, dated 2024)
Read-outs that look alike come from different tables or passages of the source.

Columns and labels:
mMC4R = mMC4R (Mus musculus, UniProt P56450); test: cAMP based functional bioassay (CRE/β-galactosidase reporter), agonist activity at mMC4R; details: for mMC4R Activity @ 10 μM (class) / mMC4R Activity @ 10 μM (relative activity, percent): reported where receptor not activated to full activity
Sequence of mMC4R (P56450 whole entry): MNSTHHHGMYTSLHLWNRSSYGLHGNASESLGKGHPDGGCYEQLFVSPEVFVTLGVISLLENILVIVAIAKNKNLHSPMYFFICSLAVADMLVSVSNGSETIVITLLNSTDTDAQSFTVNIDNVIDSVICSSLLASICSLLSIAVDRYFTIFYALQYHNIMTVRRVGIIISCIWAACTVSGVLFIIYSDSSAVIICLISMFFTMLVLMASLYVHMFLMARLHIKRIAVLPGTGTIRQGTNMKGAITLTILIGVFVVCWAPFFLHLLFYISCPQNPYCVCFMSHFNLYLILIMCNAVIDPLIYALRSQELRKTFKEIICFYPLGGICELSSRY
Experimental: (§1) The compounds were evaluated using a whole cell assay.
(§2) Compounds were dissolved in DMSO at a stock concentration of 10^−2 M and stored at −20° C. until assayed. HEK-293 cells stably expressing the selected melanocortin receptors were transiently transfected with 4 μg of CRE/β-galactosidase reporter gene. Briefly, 5000-15000 post transfection cells were plated into collagen treated 96-well plates (Nunc) and incubated overnight. […] The assay media was aspirated, and 50 μL of lysis buffer (250 mM Tris-HCl pH=8.0 and 0.1% Triton X-100) was added. The plates were stored at −80° C. overnight. The plates containing the cell lysates were thawed the following day. Aliquots of 10 μL were taken from each well and transferred to another 96-well plate for relative protein determination. To the cell lysate plates, 40 μL of phosphate-buffered saline with 0.5% BSA was added to each well. Subsequently, 150 μL of substrate buffer (60 mM sodium phosphate, 1 mM MgCl2, 10 mM KCl, 5 mM β-mercaptoethanol, 2 mg/mL ONPG) was added to each well and the plates were incubated at 37° C. The sample absorbance, OD405, was measured using a 96-well plate reader (Molecular Devices). The relative protein was determined by adding 200 μL of 1:5 dilution BioRad G250 protein dye:water to the 10 μL of cell lysate sample taken previously, and the OD595 was measured on a 96-well plate reader (Molecular Devices). Data points were normalized to forskolin and the relative protein content were used as positive controls. The EC50 values represent the mean of three or more independent experiments. The EC50 estimates, and their associated standard errors of the mean, were determined by fitting the data to a nonlinear least-squares analysis using the PRISM program (v4.0, GraphPad Inc.).
(§3) The results are tabulated in the form of EC50 values. In the case where the particular receptor was not activated to full activity at 100,000 nM, then the relative activity was reported.

mMC5R = mMC5R (Mus musculus, UniProt P41149); test: cAMP based functional bioassay (CRE/β-galactosidase reporter), agonist activity at mMC5R; details: for mMC5R Activity @ 10 μM (class) / mMC5R Activity @ 10 μM (relative activity, percent): reported where receptor not activated to full activity
Sequence of mMC5R (P41149 whole entry): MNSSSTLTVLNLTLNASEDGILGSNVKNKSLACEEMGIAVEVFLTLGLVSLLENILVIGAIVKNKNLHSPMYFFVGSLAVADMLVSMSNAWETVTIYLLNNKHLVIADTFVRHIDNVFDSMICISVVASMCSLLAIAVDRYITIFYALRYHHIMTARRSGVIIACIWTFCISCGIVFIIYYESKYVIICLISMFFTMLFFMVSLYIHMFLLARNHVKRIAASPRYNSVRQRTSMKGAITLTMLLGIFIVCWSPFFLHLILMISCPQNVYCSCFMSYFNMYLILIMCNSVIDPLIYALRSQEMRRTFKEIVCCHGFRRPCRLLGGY
Experimental: as §1, §2, §3

mMC1R = mMC1R (Mus musculus, UniProt Q01727); test: cAMP based functional bioassay (CRE/β-galactosidase reporter), agonist activity at mMC1R; details: for mMC1R Activity @ 10 μM (class) / mMC1R Activity @ 10 μM (relative activity, percent): reported where receptor not activated to full activity
Sequence of mMC1R (Q01727 whole entry): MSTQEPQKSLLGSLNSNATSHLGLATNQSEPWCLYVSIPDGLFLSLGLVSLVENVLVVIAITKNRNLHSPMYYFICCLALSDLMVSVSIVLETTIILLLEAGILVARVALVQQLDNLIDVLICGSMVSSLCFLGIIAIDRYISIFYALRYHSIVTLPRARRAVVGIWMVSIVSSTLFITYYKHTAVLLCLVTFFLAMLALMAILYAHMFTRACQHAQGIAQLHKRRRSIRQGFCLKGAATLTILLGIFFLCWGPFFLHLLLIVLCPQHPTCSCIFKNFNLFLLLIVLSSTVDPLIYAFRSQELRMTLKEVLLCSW
Experimental: as §1, §2, §3

mMC3R = mMC3R (Mus musculus, UniProt P33033); test: cAMP based functional bioassay (CRE/β-galactosidase reporter), agonist activity at mMC3R; details: for mMC3R Activity @ 10 μM (class) / mMC3R Activity @ 10 μM (relative activity, percent): reported where receptor not activated to full activity
Sequence of mMC3R (P33033 whole entry): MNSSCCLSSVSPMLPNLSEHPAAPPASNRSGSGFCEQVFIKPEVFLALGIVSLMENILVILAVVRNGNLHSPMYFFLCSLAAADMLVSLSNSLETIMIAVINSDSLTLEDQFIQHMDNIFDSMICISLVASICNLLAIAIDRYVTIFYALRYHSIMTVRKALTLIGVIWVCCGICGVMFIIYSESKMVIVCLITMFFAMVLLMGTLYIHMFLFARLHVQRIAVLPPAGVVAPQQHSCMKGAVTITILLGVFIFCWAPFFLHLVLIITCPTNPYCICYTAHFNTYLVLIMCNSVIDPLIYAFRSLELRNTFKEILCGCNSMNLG
Experimental: as §1, §2, §3

Structure (SMILES)	EC50 (mMC1R)	mMC4R Activity @ 10 μM (class) (mMC4R)	EC50 (mMC5R)	mMC3R Activity @ 10 μM (class) (mMC3R)	mMC3R Activity @ 10 μM (relative activity, percent) (mMC3R)	mMC1R Activity @ 10 μM (class) (mMC1R)	mMC4R Activity @ 10 μM (relative activity, percent) (mMC4R)	other results
CC(=O)N[C@@H](Cc1c[nH]cn1)C(=O)N[C@H](Cc1ccccc1)C(=O)N[C@@H](CCCNC(=N)N)C(=O)N[C@@H](Cc1c[nH]c2ccccc12)C(N)=O [Ac-His-DPhe-Arg-Trp-NH2, reference compound]								EC50 (mMC4R; read-out: mMC4R Mean ± SEM (agonist EC50), HEK-293 cells, mean of three or more experiments): 5.5 ± 0.8 nM; EC50 (mMC5R; read-out: mMC5R Mean ± SEM (agonist EC50), HEK-293 cells, mean of three or more experiments): 4.2 ± 1 nM
CC(C)C[C@@H]1CNC(=N)N1C[C@@H]1CCCN1C[C@@H](CC1CCCCC1)N1C[C@@H](C(C)C)N(CC23CC4CC(CC(C4)C2)C3)C1=N [TPI 2509-10]	570 ± 150 nM	A (A: <50%)	500 ± 40 nM	B (B: >51%)	70%		50%	
CC(C)CCCN1C(=N)N([C@H](Cc2ccccc2)CN2CCC[C@H]2CN2C(=N)NC[C@H]2CC(C)C)C[C@H]1[C@@H](C)O [TPI 2509-15, (R)-1-((S)-2-imino-1-((R)-1-((S)-2-(((R)-2-imino-5-isobutylimidazolidin-1-yl)methyl)pyrrolidin-1-yl)-3-phenylpropan-2-yl)-3-(4-methylpentyl)imidazolidin-4-yl)ethanol]						B (B: >51%)		mMC1R Activity @ 10 μM (relative activity, percent) (mMC1R): 62%; mMC5R Activity @ 10 μM (class) (mMC5R): B (B: >51%); mMC5R Activity @ 10 μM (relative activity, percent) (mMC5R): 77%
CCC[C@@H]1CN([C@H](Cc2ccccc2)CN2CCC[C@H]2CN2C(=N)NC[C@H]2CC(C)C)C(=N)N1CC12CC3CC(CC(C3)C1)C2 [TPI 2509-16, (R)-3-(adamantan-1-ylmethyl)-1-((R)-1-((S)-2-(((R)-2-imino-5-isobutylimidazolidin-1-yl)methyl)pyrrolidin-1-yl)-3-phenylpropan-2-yl)-4-propylimidazolidin-2-imine]	7000 ± 6100 nM		610 ± 160 nM	B (B: >51%)	74%			EC50 (mMC4R): 1330 ± 510 nM
CCC[C@@H]1CN([C@H](Cc2ccccc2)CN2CCC[C@H]2CN2C(=N)NC[C@H]2CC(C)C)C(=N)N1CCCC(C)C [TPI 2509-18, (R)-1-((R)-1-((S)-2-(((R)-2-imino-5-isobutylimidazolidin-1-yl)methyl)pyrrolidin-1-yl)-3-phenylpropan-2-yl)-3-(4-methylpentyl)-4-propylimidazolidin-2-imine]		B (B: >51%)	2180 ± 625 nM					
CC(C)CCCN1C(=N)N([C@H](Cc2ccccc2)CN2CCC[C@H]2CN2C(=N)NC[C@H]2CC(C)C)C[C@H]1C(C)C [TPI 2509-21, (R)-1-((R)-1-((S)-2-(((R)-2-imino-5-isobutylimidazolidin-1-yl)methyl)pyrrolidin-1-yl)-3-phenylpropan-2-yl)-4-isopropyl-3-(4-methylpentyl)imidazolidin-2-imine]		A (A: <50%)	1260 ± 130 nM	A (A: <50%)				
CC(C)CCCN1C(=N)N([C@H](CC2CCCCC2)CN2CCC[C@H]2CN2C(=N)NC[C@H]2C(C)C)C[C@H]1[C@@H](C)O [TPI 2509-24, (R)-1-((S)-1-((R)-1-cyclohexyl-3-((S)-2-(((R)-2-imino-5-isopropylimidazolidin-1-yl)methyl)pyrrolidin-1-yl)propan-2-yl)-2-imino-3-(4-methylpentyl)imidazolidin-4-yl)ethanol]	700 ± 80 nM		740 ± 270 nM					EC50 (mMC3R): 5200 ± 1540 nM
CC(C)CCCN1C(=N)N([C@H](Cc2ccccc2)CN2CCC[C@H]2CN2C(=N)NC[C@H]2C(C)C)C[C@H]1[C@@H](C)O [TPI 2509-33, (R)-1-((S)-2-imino-1-((R)-1-((S)-2-(((R)-2-imino-5-isopropylimidazolidin-1-yl)methyl)pyrrolidin-1-yl)-3-phenylpropan-2-yl)-3-(4-methylpentyl)imidazolidin-4-yl)ethanol]						B (B: >51%)		mMC5R Activity @ 10 μM (class) (mMC5R): A (A: <50%); mMC5R Activity @ 10 μM (relative activity, percent) (mMC5R): 40%
CCC[C@@H]1CN([C@H](Cc2ccccc2)CN2CCC[C@H]2CN2C(=N)NC[C@H]2C(C)C)C(=N)N1CCCC(C)C [TPI 2509-36, (R)-1-((R)-1-((S)-2-(((R)-2-imino-5-isopropylimidazolidin-1-yl)methyl)pyrrolidin-1-yl)-3-phenylpropan-2-yl)-3-(4-methylpentyl)-4-propylimidazolidin-2-imine]	22900 ± 10000 nM	A (A: <50%)	2030 ± 980 nM				41%	
CC(C)[C@@H]1CNC(=N)N1C[C@@H]1CCCN1C[C@@H](Cc1ccccc1)N1C[C@@H](C(C)C)N(CC2CCC(C(C)(C)C)CC2)C1=N (stereo partly drawn) [TPI 2509-38, (R)-3-((4-(tert-butyl)cyclohexyl)methyl)-1-((R)-1-((S)-2-(((R)-2-imino-5-isopropylimidazolidin-1-yl)methyl)pyrrolidin-1-yl)-3-phenylpropan-2-yl)-4-isopropylimidazolidin-2-imine]	29100 ± 20000 nM		600 ± 170 nM	B (B: >51%)	68%			
CC(C)CCCN1C(=N)N([C@H](Cc2ccccc2)CN2CCC[C@H]2CN2C(=N)NC[C@H]2C(C)C)C[C@H]1C(C)C [TPI 2509-39, (R)-1-((R)-1-((S)-2-(((R)-2-imino-5-isopropylimidazolidin-1-yl)methyl)pyrrolidin-1-yl)-3-phenylpropan-2-yl)-4-isopropyl-3-(4-methylpentyl)imidazolidin-2-imine]	10200 ± 6570 nM	A (A: <50%)	1600 ± 460 nM				21%	

More lines, main results first:

EC50 (mMC1R)	mMC4R Activity @ 10 μM (class) (mMC4R)	EC50 (mMC5R)	mMC3R Activity @ 10 μM (class) (mMC3R)	mMC3R Activity @ 10 μM (relative activity, percent) (mMC3R)	mMC1R Activity @ 10 μM (class) (mMC1R)	mMC4R Activity @ 10 μM (relative activity, percent) (mMC4R)	Structure (SMILES)	other results
7300 ± 4400 nM	A (A: <50%)	630 ± 50 nM	B (B: >51%)	58%			CC(C)CCCN1C(=N)N([C@H](CC2CCCCC2)CN2CCC[C@H]2CN2C(=N)NC[C@H]2CC(C)C)C[C@H]1[C@H](C)O [TPI 2509-6]	
	A (A: <50%)	470 ± 90 nM	B (B: >51%)	67%	B (B: >51%)	51%	CCC[C@@H]1CN([C@H](CC2CCCCC2)CN2CCC[C@H]2CN2C(=N)NC[C@H]2CC(C)C)C(=N)N1CC12CC3CC(CC(C3)C1)C2 [TPI 2509-7]	mMC1R Activity @ 10 μM (relative activity, percent) (mMC1R): 70%
500 ± 50 nM	B (B: >51%)	530 ± 50 nM	B (B: >51%)	75%		65%	CCC[C@@H]1CN([C@H](CC2CCCCC2)CN2CCC[C@H]2CN2C(=N)NC[C@H]2CC(C)C)C(=N)N1CC1CCC(C(C)(C)C)CC1 (stereo partly drawn) [TPI 2509-8, (R)-3-((4-(tert-butyl)cyclohexyl)methyl)-1-((R)-1-cyclohexyl-3-((S)-2-(((R)-2-imino-5-isobutylimidazolidin-1-yl)methyl)pyrrolidin-1-yl)propan-2-yl)-4-propylimidazolidin-2-imine]	
2300 ± 90 nM		1800 ± 130 nM	B (B: >51%)	58%			CCC[C@@H]1CN([C@H](CC2CCCCC2)CN2CCC[C@H]2CN2C(=N)NC[C@H]2CC(C)C)C(=N)N1CCCC(C)C [TPI 2509-9]	EC50 (mMC4R): 6700 ± 2400 nM
		560 ± 50 nM	B (B: >51%)	69%	B (B: >51%)		CC(C)C[C@@H]1CNC(=N)N1C[C@@H]1CCCN1C[C@@H](CC1CCCCC1)N1C[C@@H](C(C)C)N(CC2CCC(C(C)(C)C)CC2)C1=N (stereo partly drawn) [TPI 2509-11, (R)-3-((4-(tert-butyl)cyclohexyl)methyl)-1-((R)-1-cyclohexyl-3-((S)-2-(((R)-2-imino-5-isobutylimidazolidin-1-yl)methyl)pyrrolidin-1-yl)propan-2-yl)-4-isopropylimidazolidin-2-imine]	mMC1R Activity @ 10 μM (relative activity, percent) (mMC1R): 54%
	B (B: >51%)	1850 ± 800 nM	A (A: <50%)	33%	B (B: >51%)		CC(C)CCCN1C(=N)N([C@H](CC2CCCCC2)CN2CCC[C@H]2CN2C(=N)NC[C@H]2CC(C)C)C[C@H]1C(C)C [TPI 2509-12]	mMC1R Activity @ 10 μM (relative activity, percent) (mMC1R): 50%
	A (A: <50%)	480 ± 170 nM	B (B: >51%)	83%	A (A: <50%)	28%	CCC[C@@H]1CN([C@H](Cc2ccccc2)CN2CCC[C@H]2CN2C(=N)NC[C@H]2CC(C)C)C(=N)N1CC1CCC(C(C)(C)C)CC1 (stereo partly shown) [TPI 2509-17]	mMC1R Activity @ 10 μM (relative activity, percent) (mMC1R): 38%
6800 ± 600 nM		560 ± 170 nM	B (B: >51%)	62%			CC(C)C[C@@H]1CNC(=N)N1C[C@@H]1CCCN1C[C@@H](Cc1ccccc1)N1C[C@@H](C(C)C)N(CC2CCC(C(C)(C)C)CC2)C1=N (stereo partly drawn) [TPI 2509-20, (R)-3-((4-(tert-butyl)cyclohexyl)methyl)-1-((R)-1-((S)-2-(((R)-2-imino-5-isobutylimidazolidin-1-yl)methyl)pyrrolidin-1-yl)-3-phenylpropan-2-yl)-4-isopropylimidazolidin-2-imine]	
